# Test results as given in patent publication US11135319B2, “Compounds useful as imaging agents of hypoxia” (CENTRE NATIONAL DE LA RECHERCHE SCIENTIFIQUE, priority 2017, dated 2021).
# Key:
# [1] = Determination of the partition coefficient (n-octanol/H2O, radioactivity counting); format: physicochemical; details: ambient temperature, average of three measurements, read-out: Log P value
# Protocol: Determination of the partition coefficient:
# n-Octanol (1 mL) and H2O (1 mL) were mixed for 20 min at ambient temperature before adding 10 μL of radioactively labeled compound. The tube was vigorously agitated by a vortex mixer for 30 min at ambient temperature. Three aliquots of 100 μL were collected from each phase and counted in a Packard Cobra Gamma counter. Log P was calculated as follows: log P=log (concentration of radioactivity in the n-octanol phase/concentration of radioactivity in the aqueous phase). The values provided are an average of the three measurements carried out.
# [2] = system: rhabdomyosarcoma tumor (hypoxia); assay: In vivo PET (TEP) imaging of hypoxia in the animal rhabdomyosarcoma model; details: for SUVMax (average) / SUVMean (average): tumor to muscle
# Protocol: The evaluations of the radio-tracers were carried out in the animal rhabdomyosarcoma model provided by Biomedical Magnetic Resonance Research Group (REMA)—Catholic University of Louvain (UCL)—Belgium according to Peeters et al. (Int J Radiat Oncol, 2015) in the comparative study of [^18F]HX-4, [^18F]FMISO and [^18F]FAZA. The in vivo imaging was carried out using an Inveon μTEP/μTDM camera (Siemens). The animals were handled under gaseous anesthesia using isoflurane (induction at 5%, maintenance between 1.5% and 2.5% in 70% N2O/30% O2). The body temperature of the animals was maintained above 37.5° C. while the rate of respiration was constantly monitored, in order to obtain stable anesthesia reproducible from one animal to another. A catheter was placed without surgery (Insight Autoguard 24 Ga) at the caudal vein in order to allow the administration of radio-tracers. TDM acquisition is systematically performed prior to TEP imaging and is used for corrections of attenuation and diffusion of photos as well as for obtaining anatomical data. Acquisitions and reconstructions were performed with a coincidence time of 3.4 ns, an energy window of 350 to 650 keV, the OSEM3D-MAP reconstruction algorithm (respectively 2 and 18 iterations) with the “fastMAP” option, uniform variance and a required resolution of 2.26 mm. 128×128×159 pixels per image, with a voxel size of 0.776×0.776×0.796 mm^3. The images were normalized in SUV (Standardized Uptake Value) and analyzed with the PMOD (3.6 PMODTechnologies) software, by manual delimitation of the volumes of interest (VOIs) “entire tumor” and “muscle” and simultaneously using the 2 imaging modes.
# The animals were imaged for 180 consecutive minutes starting with the injection of the radiotracer [^18F]AEL-3156 (23±3 MBq) or [^18F]FMISO (18±3 MBq) coinciding with the beginning of TEP acquisition. The 180 min post-injection time is known to be optimal for this animal model, for obtaining imaging of hypoxia with TEP tracers such as [^18F]FMISO and [^18F]HX4. After TEP imaging and before waking, the animals systematically received an intraperitoneal injection of saline solution (2 mL) in order to rehydrate them.
logP at 30 min [1],SMILES,SUVMax (average) ([2]; 20-30 min of acquisition),SUVMean (average) ([2]; 20-30 min of acquisition),SUVMax (average) ([2]; 40-60 min of acquisition),SUVMean (average) ([2]; 40-60 min of acquisition),SUVMax (average) ([2]; 160-180 min of acquisition),SUVMean (average) ([2]; 160-180 min of acquisition),tumor to muscle ratio in SUVmax ([2]; at 20-30 min of acquisition),tumor to muscle ratio in SUVmean ([2]; at 20-30 min of acquisition),time for which the optimal tumor to muscle ratio remains constant ([2]; post-injection),"tumor to muscle ratio, times lower than [^18F]AEL-3156 ([2]; at 20-30 min of acquisition) [times]",time after which the optimal tumor to muscle ratio is achieved ([2]; of acquisition) [min]
-2.9,O=[N+]([O-])c1nccn1Cn1cc(CC(CCC[18F])S(=O)(=O)O)nn1 (centres unmarked) [[^18F]AEL-3156],5.20,2.94,5.10,2.93,2.90,1.51,5,3,at least 60 min,–,–
–,O=[N+]([O-])c1nccn1CC(O)C[18F] (centres unmarked) [[^18F]FMISO],2.04,1.00,3.64,1.45,5.42,3.42,1.7,1,–,3,180
